{"source": "patent US20070248705A1", "about": "“Agents for Activating the Transcription Factor Nrf2 and Foods Having Such Function” (KIRIN BEER KABUSHIKI KAISHA, priority 2004, published 2007)", "type_in_all_cases": "cell-based, mouse", "key": {"Nrf2": {"tested_on": "Nrf2", "test": "Nrf2 activation in ARE reporter assay system, RAW264.7", "conditions": "RAW264.7, 5 μM, 24 hours", "method": "To construct the reporter plasmid pGL3-mARE3A, a double-stranded oligo DNA with 3 repeats of mouse NQO1-derived ARE (antioxidant response element) to which Nrf2 is believed to bind was constructed and inserted into the MluI-NheI site of the firefly luciferase reporter vector pGL3-promoter vector (available from Promega).\nThe double-stranded oligo DNA containing AREs was prepared by chemically synthesizing two single-stranded oligo DNAs, 5 ′-[…] G-3′ (SEQ ID NO: 1) and 5′-[…]-3′(SEQ ID NO: 2), and annealing them. Further, DNA sequence analysis confirmed that the product obtained was the plasmid of interest. Next, a mouse macrophage cell line RAW264.7 (available from American Type Culture Collection) was seeded on a 12-well plate (4×10^5 cells/well), 0.8 ml of an RPMI1640 medium (Invitrogen) supplemented with 10% fetal bovine serum (HyClone) and penicillin-streptomycin (100 units/ml and 100 μg/ml, respectively; Sigma) was added, and the plate was incubated at 37° C. in an atmosphere of 5% CO2 overnight. […] The cells were broken using a Dual-Luciferase reporter assay system (Promega) and then firefly luciferase activity and renilla luciferase activity were measured using a luminometer (Luminous CT-9000D, Dia-Iatron). […]"}, "CD36": {"tested_on": "CD36", "test": "Expression of genes controlled by Nrf2 in RAW264.7: CD36", "conditions": "RAW264.7, 25 μM, 20 hours", "method": "(§1) A mouse macrophage cell line RAW264.7 was seeded on a φ60 mm dish (9×10^5 cells), 2 ml of a D-MEM medium (Invitrogen) supplemented with 10% fetal bovine serum (HyClone) and penicillin-streptomycin (100 units/ml and 100 μg/ml, respectively; Sigma) was added, and the dish was incubated at 37° C. in an atmosphere of 5% CO2 for 2 days. The medium was replaced with a fresh medium containing individual samples and incubation was continued for another 20 hours. Then, the total RNA was prepared using TRIzol (Invitrogen) and purified using a RNeasy Mini kit (Qiagen) and an RNase-free DNase set (Qiagen). Further, cDNA was synthesized from 5 μg of the purified total RNA using a Thermo Script RT-PCR system (Invitrogen), and the amount of mRNA expression of various genes was determined using a FastStart DNA Master SYBR Green I kit (Roche) and a Light Cycler (Roche).\n(§2) The amount of expression of the various genes was corrected by the amount of expression of the housekeeping gene PO and calculated as a relative expression level (n=2, mean±standard deviation). […]"}, "catalase 1 (CAT1)": {"tested_on": "catalase 1 (CAT1)", "test": "Expression of genes controlled by Nrf2 in RAW264.7: CAT1", "conditions": "RAW264.7, 25 μM, 20 hours", "method": "as §1, §2"}, "[1]": {"tested_on": "thioredoxin reductase 1 (TXNRD1)", "test": "Expression of genes controlled by Nrf2 in RAW264.7: TXNRD1", "conditions": "RAW264.7, 25 μM, 20 hours", "method": "as §1, §2"}, "[2]": {"tested_on": "glutamate cysteine ligase modifier subunit (GCLM)", "test": "Expression of genes controlled by Nrf2 in RAW264.7: GCLM", "conditions": "RAW264.7, 25 μM, 20 hours", "method": "as §1, §2"}, "TNF-α": {"tested_on": "TNF-α", "test": "Suppression of TNF-α production by macrophages (TPA and IFN-γ)", "conditions": "RAW264.7, TPA 400 nM and IFN-γ 10 units/ml, 5, 10, 20, and 40 μM, 24 hours", "method": "A mouse macrophage cell line RAW264.7 (4×10^4 cells/well) was seeded on a 96-well plate, […] of a D-MEM medium (Invitrogen) containing each sample, 10% fetal bovine serum (HyClone), and penicillin-streptomycin (100 units/ml and 100 μg/ml, respectively; Sigma) was added, and the plate was incubated at 37° C. in an atmosphere of 5% CO2 for 4 hours. Then 150 μl of a medium containing TPA (phorbol 12-tetradecanoate 13-acetate, Sigma), mouse IFN-γ (interferon-γ, eBioscience), and each sample was added and incubation was carried out for 24 hours. TPA and IFN-γ were added at a final concentration of 400 nM and 10 units/ml, respectively. As samples, isomerized hop extract was added at a concentration of 5, 10, 20, and 30 μ/ml and isohumulone (IH(F)) and isohumulone (IcH(G)) were added individually at a concentration of 5, 10, 20, and 40 μM.\nAfter completing incubation, the amount of TNF-α in the culture fluid was measured using a mouse TNF-α ELISA kit(eBioscience). The amount of TNF-α was expressed as a relative value by setting the value for the control as 100% (n=3, mean±standard variation). As a positive control, 15dPGJ2 (Cayman Chemical) was used."}}, "data": [{"molecule": "CC(C)=CCC(=O)C1(O)C(O)=C(C(=O)CC(C)C)C(=O)C1CC=C(C)C", "note": "(stereo not drawn) [IH (F), isohumulone]", "values": [{"measurement": "Nrf2 activation activity (relative luciferase activity)", "setting": "Nrf2", "result": "confirmed the activation"}, {"measurement": "expression of CD36", "setting": "CD36", "result": "augmented the expression"}, {"measurement": "expression of CAT1", "setting": "catalase 1 (CAT1)", "result": "augmented the expression"}, {"measurement": "expression of TRNRD1", "setting": "[1]", "result": "augmented the expression"}, {"measurement": "expression of GCLM", "setting": "[2]", "result": "augmented the expression"}, {"measurement": "TNF-α production", "setting": "TNF-α", "result": "concentration-dependently suppressed"}]}]}
